Source: paper PMC10582583, “The novel cyclophilin inhibitor C105SR reduces hepatic ischaemia–reperfusion injury via mitoprotection” (JHEP Reports, 2023)
Where two headings read alike, the source gives them in different places.

Tests used:
[1] = system: hepatic ischaemia-reperfusion injury in C57BL/6J mice; experiment: Mouse model of hepatic ischaemia-reperfusion injury; format: in vivo; conditions: 50 mg/kg osmotic pump, 1 h ischaemia, 6 h reperfusion
Experimental: Mice (10–12 weeks-old) were anesthetised with isoflurane and subcutaneously implanted with Alzet® osmotic pump containing C105SR (50 mg/kg) or vehicle 24 h before the surgical procedure. The mice were anesthetised with isoflurane and subjected to partial hepatic ischaemia by clamping the hepatic artery and portal vein for 60 min, followed by 6 h of reperfusion induced by removal of the clamp. The sham-operated group underwent laparotomy without vascular occlusion.
Briefly, 70% of the liver was subjected to 1 h of ischaemia followed by 6 h of reperfusion, as recently described.[16] C105SR was administered using osmotic pumps at a dose of 50 mg/kg.
Mouse serum analysis. Blood was collected at 6 h of reperfusion. Alanine aminotransferase (ALT) and aspartate aminotransferase (AST) activities were measured on an automated analyzer in the Biochemistry Department of Henri Mondor Hospital.
Histological Analysis. Hematoxylin and eosin staining was performed on 4-μm thick formalin-fixed paraffin-embedded tissue sections. Slides were scanned at x20 magnification using a virtual slide scanning system (Axio scan7/ZEN slidescan). Necrosis areas were quantified with […]
TUNEL Assay. Terminal deoxynucleotidyl-transferase (TdT) dUTP Nick-End Labeling (TUNEL) was performed on formalin-fixed paraffin-embedded tissue sections using a commercial kit (Abcam, Cambridge, United Kingdom) following the manufacturer’s instructions. The number of TUNEL-positive cells were quantified using QuPath on slides scanned at x20 magnification using a virtual slide scanning system (Axio scan7/ZEN slidescan).
Caspase 3/7 activity assay. Caspase 3/7 activity was assessed using the commercially Caspase-Glo® 3/7 assay (Promega, Madison, Wisconsin) following the manufacturer’s instructions.
Briefly, Caspase-Glo® 3/7 Reagent was incubated with the cells and the caspase3/7 activity was determined by measuring luminescence with a luminometer (Berthold). Caspase3/7 activity was expressed as a percentage of the untreated control.
In silico modeling and docking. […]

[2] = Plasmatic and hepatic concentration of C105SR in mice; format: in vivo; conditions: sc, mouse, 50 mg/kg by subcutaneous osmotic pump
Experimental: Briefly, 70% of the liver was subjected to 1 h of ischaemia followed by 6 h of reperfusion, as recently described.[16] C105SR was administered using osmotic pumps at a dose of 50 mg/kg. […]
simulation was performed using @TOME‐2 server with no constraint. The images were generated using PyMOL and MarvinSketch.
Determination of plasmatic and hepatic concentration of C105SR. Mice (10-12 weeks-old, n=6) were anesthetized with isoflurane and subcutaneously implanted with Alzet® osmotic pump containing C105SR (50 mg/kg) or vehicle. 24h after, the blood and the liver were collected. C105SR in plasma and liver homogenates was extracted with cold acetonitrile containing 0.1% of acetic acid and centrifugation at 13,000 x g for 10 min at 4 °C. C105SR dosage was carried out by tandem mass spectrometric detection with a TSQ QUANTIS® mass spectrometer (ThermoFisher Scientific, Villebon-sur-Yvette, France), with an electrospray ionization source (ESI) which was set in positive electro-spray ionization (ESI+). The acquired data were processed using Trace Finder® software version 4.1 (Thermo Fisher Scientific, Villebon-sur-Yvette, France). Optimization of the MS conditions has been performed by single direct infusion of reference standards of the analyte. Two […]

## COc1ccc(Br)cc1[C@H](NC(=O)NCc1ccc2c(c1)CCCN2)C(=O)N1CCC[C@@H]1c1cccc2ccsc12 [Compound C105SR, 1-((S)-2-((R)-2-(benzo[b]thiophen-7-yl)pyrrolidin-1-yl)-1-(5-bromo-2-methoxyphenyl)-2-oxoethyl)-3-((1,2,3,4-tetrahydroquinolin-6-yl)methyl)urea]
[1]
  hepatocyte necrosis (histology): significantly protected
  serum ALT and AST levels: significantly protected
[1]; vs vehicle
  number of TUNEL-positive apoptotic cells: significantly reduced
[2]; liver, read-out: hepatic concentration
  concentration at 24 h: ~30 nM
[2]; plasma, read-out: plasmatic concentration
  concentration at 24 h: ~30 nM
